Like-named read-outs stand apart in the source and are kept apart here.
Test system: adjuvant-induced arthritis in rats
Assay: Established Adjuvant-Induced Arthritis in Rats (A.A.)
Type: in vivo, Charles River Lewis male rats
Settings: for ED50: Rattus norvegicus, read-out: A.A. ED50 % (ED50% decrease from control paw volume)
[1] = oral, 7 daily doses, rats, determined as % paw volume reduction from control (uninjected, left hind paw)

Molecule | ED50 [1] [mg/kg] | further results
CC(=O)Oc1ccccc1C(=O)O [Aspirin, reference compound] | – | ED50 (po): 305 mg/kg
FC(F)(F)Sc1nc(-c2ccccc2)c(-c2ccccc2)n1COCc1ccccc1 [Example 1, 1-Benzyloxymethyl-4,5-diphenyl-2-trifluoromethylthioimidazole] | > 10 | % paw volume reduction from control (@ 10 mg/Kg, oral, rats): 34%
FC(F)C(F)(F)Sc1nc(-c2ccccc2)c(-c2ccccc2)n1COCc1ccccc1 [Example 2, 1-Benzyloxymethyl-4,5-diphenyl-2-(1,1,2,2-tetrafluoroethylthio)imidazole] | 3.7 | –
CCOC(=O)n1c(SC(F)(F)C(F)F)nc(-c2ccccc2)c1-c1ccccc1 [Example 3, 4,5-Diphenyl-1-ethoxycarbonyl-2-(1,1,2,2-tetrafluoroethylthio)imidazole] | 2.3 | –
O=S(=O)(c1nc(-c2ccccc2)c(-c2ccccc2)n1COCc1ccccc1)C(F)(F)C(F)F [Example 4, 1-Benzyloxymethyl-4,5-diphenyl-2-(1,1,2,2-tetrafluoroethylsulfonyl)imidazole] | 1.3 | –
FC(F)(F)Sc1nc(-c2ccccc2)c(-c2ccccc2)n1C1CCCCO1 (stereo not drawn) [Example 5, 4,5-Diphenyl-1-(2-tetrahydropyranyl)-2-trifluoromethylthiomidazole] | 18 | –
CCOC(=O)n1c(SC(F)(F)C(F)F)nc(-c2ccc(F)cc2)c1-c1ccc(F)cc1 [Example 6, 1-Ethoxycarbonyl-4,5-bis(4-fluorophenyl)-2-(1,1,2,2-tetrafluoroethylthio)imidazole] | 0.15 | –
Cn1c(S(=O)(=O)C(F)(F)C(F)F)nc(-c2ccc(F)cc2)c1-c1ccc(F)cc1 [Example 8, 4,5-bis(4-Fluorophenyl)-1-methyl-2-(1,1,2,2-tetrafluoroethylsulfonyl)imidazole] | 1 | –
CN(C)C(=S)n1c(SC(F)(F)C(F)F)nc(-c2ccccc2)c1-c1ccccc1 [Example 9, 1-(N,N-Dimethylthiocarbamoyl)-4,5-diphenyl-2-(1,1,2,2-tetrafluoroethylthio)imidazole] | < 15 | % paw volume reduction from control (@ 15 mg/Kg, oral, rats): 53%
CNC(=O)N(C)C(=O)n1c(SC(F)(F)C(F)F)nc(-c2ccccc2)c1-c1ccccc1 [Example 11, N-Methyl-N-(methylaminocarbonyl)-4,5-diphenyl-2-(1,1,2,2-tetrafluoroethylthio)imidazole-1-carboxamide] | 1.8 | –
O=C(OCc1ccccc1)n1c(SC(F)(F)C(F)F)nc(-c2ccccc2)c1-c1ccccc1 [Example 12, 1-Benzyloxycarbonyl-4,5-diphenyl-2-(1,1,2,2-tetrafluoroethylthio)imidazole] | < 25 | % paw volume reduction from control (@ 25 mg/Kg, oral, rats): 69%
CC(C)(C)C(=O)OCn1c(S(=O)(=O)C(F)(F)C(F)F)nc(-c2ccc(F)cc2)c1-c1ccc(F)cc1 [Example 13, 4,5-bis(4-Fluorophenyl)-1-(pivaloyloxymethyl)-2-(1,1,2,2-tetrafluoroethylsulfonyl)imidazole] | 1.2 | –
O=S(=O)(c1ccccc1)n1c(SC(F)(F)C(F)F)nc(-c2ccccc2)c1-c1ccccc1 [Example 14, 1-Benzenesulfonyl-4,5-diphenyl-2-(1,1,2,2-tetrafluoroethylthio)imidazole] | ~35 | –
CC(=O)n1c(SC(F)(F)C(F)F)nc(-c2ccccc2)c1-c1ccccc1 [Example 15, 1-Acetyl-4,5-diphenyl-2-(1,1,2,2-tetrafluoroethylthio)imidazole] | 0.9 | –
FC(F)C(F)(F)Sc1nc(-c2ccccc2)c(-c2ccccc2)n1C1CCCO1 (stereo not drawn) [Example 16, 4,5-Diphenyl-2-(1,1,2,2-tetrafluoroethylthio)-1-(2-tetrahydrofuranyl)imidazole] | 2.7 | –
O=S(=O)(c1ccccc1)n1c(SC(F)(F)F)nc(-c2ccc(F)cc2)c1-c1ccc(F)cc1 [Example 17, 1-Benzenesulfonyl-4,5-bis(4-fluorophenyl)-2-(trifluoromethylthio)imidazole] | 0.18 | –
CC(C)n1c(SC(F)(F)C(F)F)nc(-c2ccc(F)cc2)c1-c1ccc(F)cc1 [Example 18, 4,5-bis(4-Fluorophenyl)-1-isopropyl-2-(1,1,2,2-tetrafluoroethylthio)imidazole] | 10 | –
Cn1c(SC(F)(F)C(F)F)nc(-c2ccc(F)cc2)c1-c1ccc(F)cc1 [Example 19] | 2.3 | –

Molecule | ED50 [1] [mg/kg] | further results
CCn1c(SC(F)(F)C(F)F)nc(-c2ccc(F)cc2)c1-c1ccc(F)cc1 [Example 20] | 3 | –
CCCn1c(SC(F)(F)C(F)F)nc(-c2ccc(F)cc2)c1-c1ccc(F)cc1 [Example 21] | 14 | –
C=CCn1c(SC(F)(F)C(F)F)nc(-c2ccc(F)cc2)c1-c1ccc(F)cc1 [Example 22] | 1.3 | –
CCn1c(S(=O)(=O)C(F)(F)C(F)F)nc(-c2ccc(F)cc2)c1-c1ccc(F)cc1 [Example 23] | 4.8 | –
CCCn1c(S(=O)(=O)C(F)(F)C(F)F)nc(-c2ccc(F)cc2)c1-c1ccc(F)cc1 [Example 24] | > 9 | % paw volume reduction from control (@ 9 mg/Kg, oral, rats): 33%
CCCCn1c(S(=O)(=O)C(F)(F)C(F)F)nc(-c2ccc(F)cc2)c1-c1ccc(F)cc1 [Example 25] | 5 | –
C=CCn1c(S(=O)(=O)C(F)(F)C(F)F)nc(-c2ccc(F)cc2)c1-c1ccc(F)cc1 [Example 26] | 2 | –
CN(C)CCn1c(S(=O)(=O)C(F)(F)C(F)F)nc(-c2ccc(F)cc2)c1-c1ccc(F)cc1 [Example 27] | < 7 | % paw volume reduction from control (@ 7 mg/Kg, oral, rats): 76%
Cn1c(SC(F)(F)F)nc(-c2ccc(F)cc2)c1-c1ccc(F)cc1 [Example 28] | 2.1 | –
Cn1c(S(=O)(=O)C(F)(F)F)nc(-c2ccc(F)cc2)c1-c1ccc(F)cc1 [Example 29] | > 3 | % paw volume reduction from control (@ 3 mg/Kg, oral, rats): 33%
COc1ccc(-c2nc(S(=O)(=O)C(F)(F)CF)n(C)c2-c2ccc(OC)cc2)cc1 [Example 31] | > 20 | % paw volume reduction from control (@ 20 mg/Kg, oral, rats): 36%
CS(=O)(=O)n1c(SC(F)(F)C(F)F)nc(-c2ccccc2)c1-c1ccccc1 [Example 32] | ~21 | –
O=C(c1ccccc1)n1c(SC(F)(F)C(F)F)nc(-c2ccccc2)c1-c1ccccc1 [Example 34] | 2.3 | –
CC(C)Cc1ccc(C(C)C(=O)O)cc1 (stereo not drawn) [Ibuprofen, reference compound] | 100 | –
COc1ccc2c(c1)c(CC(=O)O)c(C)n2C(=O)c1ccc(Cl)cc1 [Indomethacin, reference compound] | – | ED50 (po): 0.3 mg/kg
CCCCC1C(=O)N(c2ccccc2)N(c2ccccc2)C1=O [Phenylbutazone, reference compound] | 10 | –
Mixture of 1-Ethoxycarbonyl-4-(4-fluorophenyl)-5-phenyl-2-(1,1,2,2-tetrafluoroethylthio)imidazole and 1-Ethoxycarbonyl-5-(4-fluorophenyl)-4-phenyl-2-(1,1,2,2-tetrafluoroethylthio)imidazole [Example 7] | – | A.A. ED50 % (ED50% decrease from control paw volume) [1]: 0.65 mg/kg
